What all share (assay): NCI-60 cell line screen, 48 h
The subject of experiment [1] is A498 renal.
Experiment [2] has as its system MDA-MB-231 breast.
The test system of experiment [3] is MOLT-4 leukemia.
Experiment [4] has as its system NCI-H23 lung.
Experiment [5] deals with NCI-H522 lung.
The subject of experiment [6] is OVCAR-5 ovarian.
In experiment [7] the test system is RXF 393 renal.
Experiment [8] has as its system SF-295 CNS.
The subject of experiment [9] is SW-620 colon.
For experiment [10], the system named is UACC-257 melanoma.

Molecules are shown by their SMILES. “And” between values parts separate entries of the source, which are not always exact repeats. Equal values may be shown once.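 96-well plates; 48 h exposure; 5 concentrations. Endpoints by linear interpolation between flanking doses. Not reached: highest tested concentration assigned. Here, GI50 denotes the concentration required for 50% inhibition of growth. The concentration for full growth arrest is given as TGI.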

For `C(=Nc1ccccc1)C1CCCC[N-]1.C(=Nc1ccccc1)C1CCCC[N-]1.[Cu+2].[O-][Cl+3]([O-])([O-])O` (stereo unspecified), the GI50 in [1] is 18.1 µM; in experiment [2], 9.75 µM; in experiment [3], 4.16 µM; in experiment [4] it was 15.1 µM; in experiment [5] it was 13.3 µM; in experiment [6] it was 14.8 µM. In addition, the GI50 in experiment [7] is 38.2 µM; in experiment [8], 3.13 µM; in [9] it was 10.4 µM; in [10], over 37.7 µM. Also, the TGI in [1] was 44.9 µM; in [2] it was 28.1 µM; in experiment [3], 11.7 µM; in experiment [4], 33.2 µM; in experiment [5] it was 52.1 µM; in experiment [6], 31.6 µM. In addition, the TGI was over 100 µM in experiment [7], 18.8 µM in experiment [8], 32.4 µM in experiment [9] and over 55.2 µM in [10].
Consider `CN1C(=O)c2c(ccc3c2OCO3)C2C(O)Cc3cc4c(cc3C21)OCO4` (stereo unspecified), for which the TGI in experiment [1] was 9.29 µM; in experiment [2] it was 18.3 µM; in [3] it was 20 µM; in [4], over 100 µM; in [5], 9.28 µM; in experiment [6], over 100 µM. Also, the results for the TGI in experiment [8] and in experiment [9] were 4.63 µM and over 100 µM, respectively.
Turning to `COc1ccc2c(c1)C(=O)c1c-2n(CCCN)c(=O)c2ccccc12`, the GI50 was 0.836 µM in experiment [1]; 0.0704 µM in [2]; under 0.01 µM in [3]; 0.0497 µM in experiment [4]; 0.0123 µM in experiment [5]; 0.142 µM in [6]. Besides, the GI50 was 0.137 µM in experiment [7], 0.015 µM in [8], under 0.01 µM in experiment [9] and 0.383 µM in experiment [10]. The TGI was 2.21 µM in experiment [1]; 0.24 µM in [2]; under 0.0243 µM in experiment [3]; 1.02 µM in experiment [4]; 0.505 µM in experiment [5]; 1.18 µM in experiment [6]. The TGI in [7] is 0.91 µM; in experiment [8], 0.657 µM; in [9] it was 1.14 µM; in [10], 2.07 µM.
For the compound `C=C(Cn1c(=O)c2ccccc2c2ccccc21)c1ccc(C(=O)Nc2ccccc2N)cc1`, the GI50 in [1] is 30.6 µM; in experiment [2], 1.75 µM; in experiment [3] it was 0.0415 µM; in experiment [4] it was 30.3 µM; in [5], 4.55 µM; in experiment [6], over 100 µM. In addition, the GI50 in experiment [7] was 5.21 µM; in [8], over 79.7 µM; in experiment [9], 58.7 µM; in [10], over 41.4 µM. Further, the TGI in [1] is over 100 µM; in experiment [2] it was over 27.8 µM; in [3], 0.196 µM; in experiment [4], over 100 µM; in experiment [5], over 94.4 µM; in [6] it was over 100 µM. Moreover, the TGI is over 68.5 µM in experiment [7], over 100 µM in experiment [8], over 100 µM in experiment [9] and over 100 µM in experiment [10].
In the case of `Cc1nc2ccc(CN(C)c3ccc(C(=O)N[C@@H](CCC(=O)O)C(=O)O)s3)cc2c(=O)[nH]1`, the GI50 was over 100 µM in experiment [1], 2.62 µM in experiment [4] and over 21.7 µM in experiment [7]. The TGI in experiment [1], in [2], in experiment [3], in experiment [4], in experiment [5] and in [6] was over 100 µM each time. Also, the TGI in experiment [7], in experiment [8], in experiment [9] and in [10] was over 100 µM throughout.
With `O=C(O)CSCc1cccc2ccccc12`, the TGI in experiment [1], in experiment [2], in experiment [3], in experiment [4], in experiment [5] and in [6] was over 100 µM each time. Moreover, the TGI in experiment [7], in experiment [8], in experiment [9] and in experiment [10] was over 100 µM each time.
As to `CC(C)=CCN=C(N)N`, the TGI in [2], in experiment [3], in [4], in [5], in experiment [7] and in experiment [8] was over 100 µM in each case. The TGI in experiment [9] and in experiment [10] was over 100 µM in each case.
On to `O=C(Nc1ccc(Cl)cc1Cl)c1ccc(NC2=C(Cl)C(=O)N(Cc3ccccc3)C2=O)cc1`, for which the GI50 in experiment [1] is 31.3 µM; in [2] it was 17.4 µM; in experiment [3] it was 3.57 µM; in experiment [5], 31.6 µM; in experiment [7] it was 17.6 µM; in experiment [8], 19.5 µM. In addition, the GI50 in experiment [9] was 34 µM; in experiment [10] it was 26.2 µM. Also, the TGI in [1] is 79.7 µM; in experiment [2] it was 31.2 µM; in [3], 11.3 µM; in [5] it was over 100 µM; in experiment [7], 38.8 µM; in experiment [8] it was 38.1 µM. Also, the TGI was over 100 µM in experiment [9] and 71.8 µM in experiment [10].
As to `COc1cccc([C@H]2CC(=O)c3cc4c(cc3N2)OCO4)c1`, the GI50 in experiment [1] is 0.265 µM; in experiment [2], 0.716 µM; in experiment [3] it was 0.0316 µM; in experiment [6], 13.7 µM; in [8], 0.0958 µM; in [9] it was 0.0676 µM. Further, in experiment [10], the GI50 is 0.0414 µM. Also, the TGI in [1] is over 100 µM; in experiment [2], over 100 µM; in [3], 0.0821 µM; in [5], 0.698 µM; in experiment [7], 0.713 µM; in [8], over 100 µM. Also, the TGI in experiment [9] and in experiment [10] was over 100 µM throughout.
For the compound `CC/C(Cc1ccccc1)=C(\c1ccc(OCCN2CCCCCC2)cc1)c1ccc(OC(=O)NCc2ccccc2)cc1`, the GI50 in [2] was 2.59 µM; in [3], 1.15 µM; in [4], 5.89 µM; in experiment [5], 1.9 µM; in experiment [6] it was 6.2 µM; in experiment [7], 1.31 µM. In addition, the GI50 was 6.5 µM in experiment [8], 1.16 µM in [9] and 3.8 µM in experiment [10]. Further, the TGI was 9.02 µM in experiment [2]; 3.78 µM in experiment [3]; 13.8 µM in experiment [4]; 7.35 µM in experiment [5]; 12.8 µM in experiment [6]; 3.35 µM in experiment [7]. Further, the TGI in experiment [8] amounted to 13.2 µM; in experiment [9], 2.49 µM; in experiment [10] it was 11.3 µM.
Take `CC1=NN(C(=O)c2ccccc2O)C(=O)/C1=C/c1ccc([N+](=O)[O-])cc1`: the TGI in experiment [2] is over 100 µM; in [3], over 100 µM; in [4] it was 4.77 µM; in experiment [5], 7.06 µM and 12.9 µM; in experiment [6], over 100 µM; in [8] it was over 100 µM. Besides, the TGI in [9] and in experiment [10] was over 100 µM in each case. Moreover, the GI50 was 0.35 µM in experiment [3]; 0.654 µM in [4]; 2.03 µM in [5]; 2.62 µM in experiment [6]; 0.263 µM in experiment [7]; 0.379 µM in experiment [8]. Moreover, the GI50 in experiment [9] was 3.15 µM; in [10] it was 2.34 µM.
Take `CCSc1nnc2c(-c3ccccc3)n[nH]c2n1`: the TGI in [2], in experiment [3], in [4], in experiment [5], in experiment [6] and in [7] was over 100 µM each time. Moreover, the TGI in experiment [8], in experiment [9] and in [10] was over 100 µM in each case.
Take `O=[As](O)(O)c1ccc(NCc2ccccc2)cc1`: the TGI in experiment [1], in experiment [2], in experiment [3], in [4], in experiment [5] and in experiment [6] was over 100 µM each time. The TGI in [7], in experiment [8] and in experiment [10] was over 100 µM each time.
On to `COc1cc(-c2nn3c(/C=C4/C(=O)Nc5ccccc54)c(-c4ccc(C)cc4)nc3s2)cc(OC)c1OC`, for which the GI50 in [1] is 7.28 µM; in experiment [2], 3.51 µM; in [4] it was 4.54 µM; in experiment [5], 10.2 µM; in experiment [6], over 100 µM; in experiment [7], 2.24 µM. In [8], the GI50 is 5.04 µM. The TGI was 36.7 µM in [1]; 20.8 µM in experiment [2]; 25.3 µM in experiment [4]; 37.5 µM in [5]; over 100 µM in experiment [6]; 14.7 µM in [7]. For the same compound, in experiment [8], the TGI is 31.1 µM.

Values taken from PubChem BioAssay (NCI).
